≈ marks a conversion by molar mass, not a printed value. Peptide text beside a SMILES is read from it.
Tests used:
Type in all cases: functional
[1] = system: Candida albicans; test: Antifungal activity against Candida albicans SC5314 after 24 hrs to 1 week by two fold dilution method
[2] = system: Candida parapsilosis; test: Antifungal activity against Candida parapsilosis after 24 hrs to 1 week by two fold dilution method; conditions: Lodderomyces parapsilosis
[3] = system: Candida albicans; test: Antifungal activity against Candida albicans Y0109 after 24 hrs to 1 week by two fold dilution method
[4] = system: Candida tropicalis; test: Antifungal activity against Candida tropicalis after 24 hrs to 1 week by two fold dilution method
[5] = system: Cryptococcus neoformans; test: Antifungal activity against Cryptococcus neoformans BLS108 after 24 hrs to 1 week by two fold dilution method

MIC80 [1]: 4 µg/mL (≈ 4.44 µM) | MIC80 [2]: 1 µg/mL (≈ 1.11 µM) | MIC80 [3]: 16 µg/mL (≈ 17.8 µM) | MIC80 [4]: 0.25 µg/mL (≈ 0.277 µM) | MIC80 [5]: 1 µg/mL (≈ 1.11 µM)
Structure (SMILES): CC[C@H](C)[C@@H]1NC(=O)[C@H](CC(N)=O)NC(=O)[C@H](C(C)C)NC(=O)CNC(=O)[C@H](Cc2c[nH]cn2)NC(=O)[C@H](Cc2c[nH]c3ccccc23)NC(=O)[C@@H]2CCCN2C(=O)[C@@H]2CCCN2C1=O [TUNICYCLIN D] (cyclo(GVNIPPWH))
